# Experimental data reported in patent US20190231822A1, “METHODS OF REDUCING CHRONIC GRAFT-VERSUS-HOST DISEASE” (Regents of the University of Minnesota, priority 2016, published 2019).
# Test system: cGVHD
# Experiment: cGVHD prevention or reversal by an iNKT agonist
# Type: in vivo
# Conditions: intravascular administration
smiles,measurement,value
CCCCCCCCCCCCCCCCCCCCCCCCCC(=O)N[C@@H](CO[C@H]1O[C@H](CO)[C@H](O)[C@H](O)[C@H]1O)[C@H](O)[C@H](O)CCCCCCCCCCCCCC [alpha-galactosylceramide],prevention or reversal of cGVHD,able to prevent or reverse cGVHD
